From patent US20240122212A1 (SUNTORY HOLDINGS LIMITED, priority 2020, published 2024)

Legend:
[1] = Basic taste quality sensory evaluation by trained panelists, spitting test, against 6% sucrose control (Example 1); format: in vivo, human
Experimental: In each evaluation item, the rating on a scale of −3 point to 3 point was performed, with the case where there is no difference from the control solution being 0. Quicker in sweetness onset, higher sweetness intensity, shorter lingering sweet aftertaste, lower bitterness intensity, and shorter lingering bitter aftertaste compared to the control were rated near 3 points. Slower in sweetness onset, lower sweetness intensity, longer lingering sweet aftertaste, higher bitterness intensity, and longer lingering bitter aftertaste compared to the control were rated near −3 points. That is, the closer to 0 point, the closer to the control. The evaluation was carried out by those (4 persons) who received sensory trainings as panelists by spitting test. The amount of a sweet substance contained in each sample solution was adjusted to be equal to the control solution on the calculation. […] The energy (kcal/100 ml) was calculated from the amount of the sweetener added.

[2] = Degree of sweetness relative to sucrose
From the text: The “sweetness intensity” means an intensity of sweetness of a substance. […] A numerical value obtained by multiplying the degree of sweetness by a concentration Brix value of glucose is the sweetness intensity of glucose in terms of sucrose. Thus, when a concentration of glucose in terms of sucrose is Brix 1.5, the sweetness intensity of glucose is 0.65×1.5=0.975. The sweetness intensity of a sweetener in terms of sucrose can be calculated from a degree of sweetness shown in the following table or a value of a known degree of sweetness.
For example, when the sweetness intensity of sucrose per unit concentration Brix 1 is defined as a degree of sweetness of 1, a degree of sweetness of rebaudioside D is about 200 to 250 (median value 225), a degree of sweetness of rebaudioside M is about 200 to 260 (median value 230), a degree of sweetness of rebaudioside B is about 325, a degree of sweetness of rebaudioside A is about 200 to 300 (median value 250), a degree of sweetness of rebaudioside N is about 200 to 250 (median value 225), a degree of sweetness of rebaudioside O is about 200 to 250 (median value 225), a degree of sweetness of rebaudioside E is about 70 to 80 (median value 75), a degree of sweetness of a Luo han guo extract (containing 40% of Mog V) is about 110 to 150 (median value 130), a degree of sweetness of mogroside V is about 240 to 300 (median value 270), and a degree of sweetness of thaumatin is about 2,000, and a degree of sweetness of brazzein is about 500 to 2,000 (median value 1,250). The numerical value obtained by multiplying these degrees of sweetness by a concentration (w/v % (considered to be the same as w/w % in the case of a beverage)) of the high-intensity sweetener in a fruit juice beverage is a sweetness intensity of the high-intensity sweetener. The relative ratio in degrees of sweetness of various sweeteners to the degree of sweetness of 1 of sucrose can be determined from a known sugar sweetness conversion table, and the like. In the present description, when a degree of sweetness is shown in a numerical value range, the median value may be used. However, a sweetener having different values in a degree of sweetness by literatures, a relative ratio in a degree of sweetness to the degree of sweetness of 1 of sucrose can be defined by a sensory test. Examples of such a sensory test include a method in which samples were prepared by adding sucrose having a sweetness intensity of Brix 3.0 to 5.0 in 0.5 increments to pure water, and of which a sucrose-added sample having a sweetness intensity equal to an aqueous solution of a sweetener in a predetermined concentration is selected.
Additionally, for a sweetener with a variable degree of sweetness as a sweetness intensity increases, degrees of sweetness in different concentrations are actually measured and plotted whereby a degree of sweetness in a predetermined concentration may be calculated from the obtained approximate curve.

[3] = scale −3 to 3, 0 = no difference from 6% sucrose control, D-allulose 8.57 w/v %, D-arabinose 10 w/v % in pure water, 4 panelists

O=C[C@@H](O)[C@H](O)[C@H](O)CO [D-Arabinose]
taste quality compared with aqueous solutions containing D-allulose ([1]; aqueous solutions, Example 1): lower bitterness intensity and shorter lingering bitter aftertaste with the taste quality closer to sucrose | Bitterness intensity [1, 3]: 0 point | Lingering bitter aftertaste [1, 3]: −0.125 point | Lingering sweet aftertaste [1, 3]: 0 point | Quickness in sweetness onset [1, 3]: 0.250 point | Sweetness intensity [1, 3]: 0 point | degree of sweetness, times as much as that of sucrose ([2]; according to the confirmation by the present inventors): about 0.6 times | degree of sweetness, times as much as that of sucrose ([2]; value used to design the sample solutions): 0.6 times | sweetness intensity, times as much as that of sucrose ([2]; value used to design the sample solutions of Example 5): 0.6 times
